Drawing on patent US8574563B2 (Bristol-Myers Squibb Company, priority 2006, dated 2013), this text covers EC50 for 18 molecules.

Usually EC50 stands for the concentration needed to bring the measured effect to its halfway point.

This assay deals with HCV 1b-377-neo replicon cells. The assay is described as follows: HCV replicon assay, HCV 1b-377-neo replicon cells (1b FRET). The assay is classed as cell-based, Hepatitis C virus genotype 1b. To be noted: Hepatitis C virus, HCV 1b-377-neo replicon cells; HCV 1b genotype; read-out: EC50 range against HCV 1b (Table 2, Range). How it is done: An HCV Replion assay was utilized in the present disclosure, and was prepared, conducted and validated as described in commonly owned PCT/US2006/022197 and in O'Boyle et. al. Antimicrob Agents Chemother. 2005 April; 49(4):1346-53.
HCV 1b-377-neo replicon cells were used to test the currently described compound series as well as cells resistant to compound A due to a Y2065H mutation in NS5A (described in application PCT/US2006/022197). The compounds tested were determined to have more than 10-fold less inhibitory activity on cells resistant to compound A than wild-type cells indicating a related mechanism of action between the two compound series. Thus, the compounds of the present disclosure can be effective to inhibit the function of the HCV NS5A protein and are understood to be as effective in combinations as previously described in application PCT/US2006/022197 and commonly owned WO/04014852. Further, the compounds of the present disclosure can be effective against the HCV 1b genotype. It should also be understood that the compounds of the present disclosure can inhibit multiple genotypes of HCV. […] In one embodiment compounds of the present disclosure are active against the 1a, 1b, 2a, 2b, 3a, 4a, and 5a genotypes.
On the technique in general: Replicon systems follow genome replication, usually without infectious particles.
Consider `COC(=O)N[C@@H](C(=O)N1CCC[C@H]1c1ncc(-c2ccc(-c3ccc(-c4cnc([C@@H]5CCCN5C(=O)[C@H]5CCCO5)[nH]4)cc3)cc2)[nH]1)c1ccccc1Cl` [Example 107-39, methyl ((1R)-1-(2-chlorophenyl)-2-oxo-2-((2S)-2-(5-(4′-(2-((2S)-1-((2R)-tetrahydro-2-furanylcarbonyl)-2-pyrrolidinyl)-1H-imidazol-5-yl)-4-biphenylyl)-1H-imidazol-2-yl)-1-pyrrolidinyl)ethyl) carbamate], for which the EC50 was in the range of 0.001 to 0.999 nM.

In the case of `COC(=O)N[C@@H](C)C(=O)N1C[C@@H](F)C[C@H]1c1ncc(-c2ccc(-c3ccc(-c4cnc([C@@H]5C[C@H](F)CN5C(=O)[C@H](C)NC(=O)OC)[nH]4)cc3)cc2)[nH]1` [JG-13, methyl ((1S)-2-((2S,4S)-4-fluoro-2-(5-(4′-(2-((2S,4S)-4-fluoro-1-(N-(methoxycarbonyl)-L-alanyl)-2-pyrrolidinyl)-1H-imidazol-5-yl)-4-biphenylyl)-1H-imidazol-2-yl)-1-pyrrolidinyl)-1-methyl-2-oxoethyl)carbamate], the EC50 fell in the range of 1 to 99 nM.

Regarding `COC(=O)N[C@@H](C(=O)N1CCC[C@H]1c1ncc(-c2ccc(-c3ccc(-c4cnc([C@@H]5CCCN5C(=O)COc5ccccc5OC)[nH]4)cc3)cc2)[nH]1)c1ccccc1` [Example 84-26, methyl ((1R)-2-((2S)-2-(5-(4′-(2-((2S)-1-((2-methoxyphenoxy)acetyl)-2-pyrrolidinyl)-1H-imidazol-5-yl)-4-biphenylyl)-1H-imidazol-2-yl)-1-pyrrolidinyl)-2-oxo-1-phenylethyl)carbamate], the EC50 is 0.001 to 0.999 nM.

On to `COC(=O)N[C@@H](C(=O)N1CCC[C@H]1c1ncc(-c2ccc(-c3ccc(-c4cnc([C@@H]5CCCN5C(=O)[C@H]5CCCO5)[nH]4)cc3)cc2)[nH]1)c1ccccc1` [Example 36, methyl ((1R)-2-oxo-1-phenyl-2-((2S)-2-(5-(4′-(2-((2S)-1-((2R)-tetrahydro-2-furanylcarbonyl)-2-pyrrolidinyl)-1H-imidazol-5-yl)-4-biphenylyl)-1H-imidazol-2-yl)-1-pyrrolidinyl)ethyl)carbamate], for which the EC50 is 0.001 to 0.999 nM.

In the case of `COC(=O)N[C@H](CC(=O)N1CCC[C@H]1c1ncc(-c2ccc(-c3ccc(-c4cnc([C@@H]5CCCN5C(=O)C[C@@H](NC(=O)OC)C(C)C)[nH]4)cc3)cc2)[nH]1)C(C)C` [cj-127, dimethyl (4,4′-biphenyldiylbis(1H-imidazole-5,2-diyl(2S)-2,1-pyrrolidinediyl((3R)-4-methyl-1-oxo-1,3-pentanediyl)))biscarbamate], the EC50 lay within 1 to 99 nM.

In the case of `CC(C)[C@H](NS(C)(=O)=O)C(=O)N1CCC[C@H]1c1nc(-c2ccc(-c3ccc(-c4c[nH]c([C@@H]5CCCN5C(=O)[C@@H](NS(C)(=O)=O)C(C)C)n4)cc3)cc2)c[nH]1` [Example F66, N-((1S)-2-methyl-1-(((2S)-2-(4-(4′-(2-((2S)-1-((2S)-3-methyl-2-((methylsulfonyl)amino)butanoyl)-2-pyrrolidinyl)-1H-imidazol-4-yl)-4-biphenylyl)-1H-imidazol-2-yl)-1-pyrrolidinyl)carbonyl)propyl)methanesulfonamide], the 50% effective concentration (EC50) fell in the range of 1 to 99 nM.

Take `COC(=O)N[C@H](C(=O)N1CCC[C@@H]1c1ncc(-c2ccc(-c3ccc(-c4cnc([C@H]5CCCN5C(=O)[C@@H](NC(=O)OC)C(C)C)[nH]4)cc3)cc2)[nH]1)C(C)C` [Example M28, methyl ((1S)-1-(((2R)-2-(5-(4′-(2-((2R)-1-((2S)-2-((methoxycarbonyl)amino)-3-methylbutanoyl)-2-pyrrolidinyl)-1H-imidazol-5-yl)-4-biphenylyl)-1H-imidazol-2-yl)-1-pyrrolidinyl)carbonyl)-2-methylpropyl)carbamate]: the EC50 lay within 1000 to 10000 nM.

In the case of `COC(=O)N[C@H](C(=O)N1CCC[C@H]1c1ncc(-c2ccc(-c3ccc(-c4cnc([C@@H]5CCCN5C(=O)[C@H]5CCCC[C@H]5NC(=O)OC)[nH]4)cc3)cc2)[nH]1)C(C)C` [cj-93, methyl ((1S)-1-(((2S)-2-(5-(4′-(2-((2S)-1-(((1S,2R)-2-((methoxycarbonyl)amino)cyclohexyl)carbonyl)-2-pyrrolidinyl)-1H-imidazol-5-yl)-4-biphenylyl)-1H-imidazol-2-yl)-1-pyrrolidinyl)carbonyl)-2-methylpropyl)carbamate], the concentration giving a half-maximal response (EC50) lay in the range of 0.001 to 0.999 nM.

In the case of `CCN(CC)[C@@H](C(=O)N1CCC[C@H]1c1ncc(-c2ccc(-c3ccc(-c4cnc([C@@H]5CCCN5C(=O)[C@H](Cc5cncn5C)NC(=O)OC)[nH]4)cc3)cc2)[nH]1)c1ccccc1` [cj-44, methyl ((1S)-2-((2S)-2-(5-(4′-(2-((2S)-1-((2R)-2-(diethylamino)-2-phenylacetyl)-2-pyrrolidinyl)-1H-imidazol-5-yl)-4-biphenylyl)-1H-imidazol-2-yl)-1-pyrrolidinyl)-1-((1-methyl-1H-imidazol-5-yl)methyl)-2-oxoethyl)carbamate], the concentration for a half-maximal effect (EC50) is 0.001 to 0.999 nM.

For `CCN(CC)[C@@H](C(=O)N1CCC[C@H]1c1ncc(-c2ccc(-c3ccc(-c4cnc([C@@H]5CCCN5C(=O)[C@H](COC)NC(=O)OC)[nH]4)cc3)cc2)[nH]1)c1ccccc1` [Example M61, methyl ((1S)-2-((2S)-2-(5-(4′-(2-((2S)-1-((2R)-2-(diethylamino)-2-phenylacetyl)-2-pyrrolidinyl)-1H-imidazol-5-yl)-4-biphenylyl)-1H-imidazol-2-yl)-1-pyrrolidinyl)-1-(methoxymethyl)-2-oxoethyl)carbamate], the EC50 is 1 to 99 nM.

Regarding `COC(=O)N[C@@H](C(=O)N1CCC[C@H]1c1ncc(-c2ccc(-c3cnc(-c4cnc([C@@H]5CCCN5C(=O)[C@H](NC(=O)OC)c5ccccc5)[nH]4)cn3)cc2)[nH]1)c1ccccc1` [Example 152j-8, methyl ((1R)-2-((2S)-2-(5-(5-(4-(2-((2S)-1-((2R)-2-((methoxycarbonyl)amino)-2-phenylacetyl)-2-pyrrolidinyl)-1H-imidazol-5-yl)phenyl)-2-pyrazinyl)-1H-imidazol-2-yl)-1-pyrrolidinyl)-2-oxo-1-phenylethyl)carbamate], the EC50 is 0.001 to 0.999 nM.

In the case of `O=C(CC1CC1)N1CCC[C@H]1c1ncc(-c2ccc(-c3ccc(-c4cnc([C@@H]5CCCN5C(=O)CC5CC5)[nH]4)cc3)cc2)[nH]1` [Example 12, 5,5′-(4,4′-biphenyldiyl)bis(2-((2S)-1-(cyclopropylacetyl)-2-pyrrolidinyl)-1H-imidazole)], the EC50 is 1 to 99 nM.

`COC[C@H](NC(=O)OC)C(=O)N1CCC[C@H]1c1ncc(-c2ccc(-c3ccc(-c4cnc([C@@H]5CCCN5C(=O)[C@@H](NC(=O)OC)C(C)C)[nH]4)cc3)cc2)[nH]1` [Example M71, methyl ((1S)-2-((2S)-2-(5-(4′-(2-((2S)-1-(N-(methoxycarbonyl)-L-valyl)-2-pyrrolidinyl)-1H-imidazol-5-yl)-4-biphenylyl)-1H-imidazol-2-yl)-1-pyrrolidinyl)-1-(methoxymethyl)-2-oxoethyl)carbamate]: the EC50 is 1 to 99 nM.

Take `CN(C)[C@H](C(=O)N1CCC[C@H]1c1ncc(-c2ccc(-c3ccc(-c4cnc([C@@H]5CCCN5C(=O)[C@H](c5ccccc5)N(C)C)[nH]4)cc3)cc2)[nH]1)c1ccccc1` [Example 5, (1S,1′S)-2,2′-(4,4′-biphenyldiylbis(1H-imidazole-5,2-diyl(2S)-2,1-pyrrolidinediyl))bis(N,N-dimethyl-2-oxo-1-phenylethanamine)]: the EC50 lay in the range of 1 to 99 nM.

For the molecule `COC(=O)N[C@@H](CC(C)C)C(=O)N1CCC[C@H]1c1ncc(-c2ccc(-c3ccc(-c4cnc([C@@H]5CCCN5C(=O)[C@H](CC(C)C)NC(=O)OC)[nH]4)cc3)cc2)[nH]1` [OL-6, methyl ((1S)-1-(((2S)-2-(4-(4′-(2-((2S)-1-((2S)-2-((methoxycarbonyl)amino)-4-methylpentanoyl)-2-pyrrolidinyl)-1H-imidazol-4-yl)-4-biphenylyl)-1H-imidazol-2-yl)-1-pyrrolidinyl)carbonyl)-3-methylbutyl)carbamate], the EC50 is 0.001 to 0.999 nM.

`O=C(O)c1nc([C@@H]2CCCN2C(=O)[C@@H](c2ccccc2)N2CCCCC2)[nH]c1-c1ccc(-c2ccc(-c3cnc([C@@H]4CCCN4C(=O)[C@@H](c4ccccc4)N4CCCCC4)[nH]3)cc2)cc1` [Example J31, 2-((2S)-1-((2R)-2-phenyl-2-(1-piperidinyl)acetyl)-2-pyrrolidinyl)-5-(4′-(2-((2S)-1-((2R)-2-phenyl-2-(1-piperidinyl)acetyl)-2-pyrrolidinyl)-1H-imidazol-5-yl)-4-biphenylyl)-1H-imidazole-4-carboxylic acid]: the EC50 was in the range of 0.001 to 0.999 nM.

Take `COC(=O)N[C@H]1CC[C@H](C(=O)N2CCC[C@H]2c2ncc(-c3ccc(-c4ccc(-c5cnc([C@@H]6CCCN6C(=O)[C@H]6CC[C@H](NC(=O)OC)CC6)[nH]5)cc4)cc3)[nH]2)CC1` [cj-151, dimethyl (4,4′-biphenyldiylbis(1H-imidazole-5,2-diyl(2S)-2,1-pyrrolidinediylcarbonyltrans-4,1-cyclohexanediyl))biscarbamate]: the EC50 fell in the range of 1 to 99 nM.

On to `COC(=O)N[C@@H](C(=O)N1CCC[C@H]1c1ncc(-c2ccc(-c3ccc(-c4cnc([C@@H]5CCCN5C(=O)Cc5cccc(C)c5)[nH]4)cc3)cc2)[nH]1)c1ccccc1` [Example 84-71, methyl ((1R)-2-((2S)-2-(5-(4′-(2-((2S)-1-((3-methylphenyl)acetyl)-2-pyrrolidinyl)-1H-imidazol-5-yl)-4-biphenylyl)-1H-imidazol-2-yl)-1-pyrrolidinyl)-2-oxo-1-phenylethyl)carbamate], for which the EC50 is 1 to 99 nM.
